Assay results taken from ChEMBL document CHEMBL3886753, “Heterocyclic carboxylic acids as activators of soluble guanylate cyclase” (2016).

assay: Homogeneous Time Resolved Fluorescence Assay: The sGC cellular activator assay is performed in the presence and absence of 50% human serum (HS) using Chinese hamster ovary cells that have been stably transfected to express the human soluble guanylate cyclase alpha 1 and beta 1 subunits (sGC). Cells are preincubated with 40 microM 1H-[1,2,4]oxadiazolo[4,3-a]quinoxalin-1-one (ODQ), an sGC inhibitor, for one h in buffer containing 0.1% bovine serum albumin and 3-isobutyl-1-methylxanthine (IBMX). Concentration response curves are prepared for test compounds in DMSO. An intermediate dilution of the compounds is performed in either buffer containing IBMX or type AB HS containing IBMX. Diluted compounds are added to cells and they are incubated at room temperature for thirty min. cGMP is measured using a CisBio homogeneous time resolved fluorescence kit and the EC50 is calculated for each compound.

| Structure (SMILES) | EC50 [nM] |
| --- | --- |
| Cc1cccc(-c2csc(N3CC[C@@]4(C(=O)O)C[C@H]4C3)n2)c1OCc1ccc2c(c1)CCN(C1CCOC1)CC2 (stereo partly drawn) | 11 |
| Cc1cc(COc2c(C)cccc2-c2csc(N3CC[C@@]4(C(=O)O)C[C@H]4C3)n2)cc2c1CN(CC1COCCO1)CC2 (stereo partly drawn) | 11 |
| O=C(O)[C@@]12CCN(c3nccc(-c4ccccc4OCc4ccc5c(c4)CCN(C4CCOCC4)C5)n3)C[C@@H]1C2 | 32 |
| Cc1cccc(-c2csc(N3CC[C@@]4(C(=O)O)C[C@H]4C3)n2)c1OCc1ccc2c(c1C)CCN(C1COC1)C2 | 17 |
| CO[C@@H]1CN(c2nc(-c3cc(F)cc(C)c3OCc3ccc4c(c3)[C@@H](C)CN(C3CCOCC3)CC4)cs2)CC[C@@H]1C(=O)O | 5 |
| Cc1ccc(OCc2ccc3c(c2)CCN(C2COC2)C3)c(-c2csc(N3CC[C@@]4(C(=O)O)C[C@H]4C3)n2)c1 | 73 |
| Cc1cccc(-c2csc(N3CC[C@@]4(C(=O)O)C[C@H]4C3)n2)c1OCc1ccc2c(c1C)CCN(C1CCOCC1)C2 | 11 |
| Cc1cccc(-c2csc(N3CC[C@@]4(C(=O)O)C[C@H]4C3)n2)c1OCc1ccc2c(c1C)CCN(C1COC1)CC2 | 6 |
| Cc1cccc(-c2csc(N3CC[C@@]4(C(=O)O)C[C@H]4C3)n2)c1OCc1ccc2c(c1)CCN(C1CCOCC1)CC2 | 10 |
| Cc1ccc(OCc2ccc3c(c2C)CCN(C2CCOCC2)C3)c(-c2ccnc(N3CC[C@@]4(C(=O)O)C[C@H]4C3)n2)c1 | 12 |
| CO[C@@H]1CN(c2nc(-c3cc(F)cc(C)c3OCc3ccc4c(c3)[C@H](C)CN(C3CCOCC3)CC4)cs2)CC[C@@H]1C(=O)O | 11 |

The remaining molecules from weak to strong by EC50, led by results:

| EC50 [nM] | Structure (SMILES) |
| --- | --- |
| 453 | Cc1cccc(-c2csc(N3CC[C@@]4(C(=O)O)C[C@H]4C3)n2)c1OCc1cnc2c(c1)CCN(C1CCOC1)C2 (stereo partly drawn) |
| 209 | Cc1cccc(-c2csc(N3CC[C@@]4(C(=O)O)C[C@H]4C3)n2)c1OCc1cnc2c(c1)CCN(C1CCOCC1)C2 |
| 50 | Cc1ccc(OCc2ccc3c(c2C)CCN(C2COC2)CC3)c(-c2cccc(N3CC4C[C@]4(C(=O)O)C3)n2)c1 (stereo partly drawn) |
| 17 | CO[C@H]1CN(c2nc(-c3cc(C)ccc3OCc3ccc4c(c3C)CCN(C[C@@H]3CCOC3)C4)cs2)CC[C@H]1C(=O)O |
| 6 | CO[C@@H]1CN(c2cccc(-c3cccc(C)c3OCc3ccc4c(c3C)CCN(C3CCOCC3)CC4)n2)CC[C@@H]1C(=O)O |
| 2 | Cc1cc(COc2c(C)cccc2-c2csc(N3CC[C@@]4(C(=O)O)C[C@H]4C3)n2)cc2c1CN(C1COC1)CC2 |
| 2 | Cc1cccc(-c2csc(N3CC[C@@]4(C(=O)O)C[C@H]4C3)n2)c1OCc1ccc2c(c1C)CCN(C1CCOCC1)CC2 |
